In ChEMBL document CHEMBL5291721, “A preclinical secondary pharmacology resource illuminates target-adverse drug reaction associations of marketed drugs” (Nat Commun, 2023) one finds AC50 data, which are given here for 17 compounds.

Where only a bound is given, the exact number is not on record here.

Experiment [1] concerns the target Gamma-aminobutyric acid receptor subunit alpha-1/alpha-2/beta-2/gamma-2 (Homo sapiens, UniProt P14867+P18507+P47869+P47870). Format: functional, cell-based.
For experiment [2], the target named is Beta-1 adrenergic receptor (Homo sapiens, UniProt P08588). Format: functional.
Experiment [3] concerns the target T1, Cholecystokinin receptor type A (Homo sapiens, UniProt P32238).
T1 sequence (P32238 whole entry): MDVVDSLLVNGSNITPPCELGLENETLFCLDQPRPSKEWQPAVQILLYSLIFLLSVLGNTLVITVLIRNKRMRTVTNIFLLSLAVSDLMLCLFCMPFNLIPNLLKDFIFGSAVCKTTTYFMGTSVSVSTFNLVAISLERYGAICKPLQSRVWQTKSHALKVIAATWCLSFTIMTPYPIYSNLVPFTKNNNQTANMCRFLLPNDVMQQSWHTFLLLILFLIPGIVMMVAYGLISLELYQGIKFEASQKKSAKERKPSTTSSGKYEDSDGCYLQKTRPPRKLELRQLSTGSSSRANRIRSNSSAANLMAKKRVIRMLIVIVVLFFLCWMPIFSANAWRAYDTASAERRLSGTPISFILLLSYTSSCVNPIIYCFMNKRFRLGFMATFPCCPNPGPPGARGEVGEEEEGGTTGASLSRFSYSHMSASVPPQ

Experiment [4] deals with T2, Type-1 angiotensin II receptor (Homo sapiens, UniProt P30556).
T2 sequence (P30556 whole entry): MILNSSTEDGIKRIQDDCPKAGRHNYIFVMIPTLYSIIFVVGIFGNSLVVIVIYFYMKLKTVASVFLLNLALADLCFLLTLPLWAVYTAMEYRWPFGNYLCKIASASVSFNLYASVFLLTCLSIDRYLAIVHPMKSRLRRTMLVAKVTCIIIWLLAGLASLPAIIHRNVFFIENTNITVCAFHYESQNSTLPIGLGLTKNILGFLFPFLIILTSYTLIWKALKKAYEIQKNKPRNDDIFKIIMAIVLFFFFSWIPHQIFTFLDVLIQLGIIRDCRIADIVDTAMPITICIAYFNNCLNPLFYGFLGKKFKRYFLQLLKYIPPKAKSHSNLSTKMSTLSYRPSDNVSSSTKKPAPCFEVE

Another experiment has as its target Melanocortin receptor 3 (Homo sapiens, UniProt P41968).
Experiment [5] addresses Growth hormone secretagogue receptor type 1 (Homo sapiens, UniProt Q92847).
For the next experiment, the target named is Motilin receptor (Homo sapiens, UniProt O43193).
In experiment [6] the target is Voltage-dependent N-type calcium channel subunit alpha-1B (Rattus norvegicus, UniProt Q02294). Format: functional.
For experiment [7], the target named is T3, Muscarinic acetylcholine receptor M1 (Homo sapiens, UniProt P11229).
T3 sequence (P11229 whole entry): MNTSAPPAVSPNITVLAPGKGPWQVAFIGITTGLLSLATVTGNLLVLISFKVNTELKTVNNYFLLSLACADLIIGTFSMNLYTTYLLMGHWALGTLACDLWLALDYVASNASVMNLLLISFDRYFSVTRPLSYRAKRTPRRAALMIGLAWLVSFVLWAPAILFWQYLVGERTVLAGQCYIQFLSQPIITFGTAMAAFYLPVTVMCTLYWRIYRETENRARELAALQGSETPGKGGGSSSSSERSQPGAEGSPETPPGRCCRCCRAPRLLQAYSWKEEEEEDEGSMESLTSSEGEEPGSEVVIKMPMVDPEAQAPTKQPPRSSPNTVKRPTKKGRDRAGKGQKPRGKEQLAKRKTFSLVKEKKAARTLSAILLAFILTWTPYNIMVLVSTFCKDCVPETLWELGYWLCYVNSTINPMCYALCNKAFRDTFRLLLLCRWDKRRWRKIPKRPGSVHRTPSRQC
Format: functional, cell-based.

The target in experiment [8] is T3, Muscarinic acetylcholine receptor M1. Format: functional, cell-based. This is another data set of the same source.
Further: assay procedure not described here.

Sequence of Growth hormone secretagogue receptor type 1 (Q92847 whole entry): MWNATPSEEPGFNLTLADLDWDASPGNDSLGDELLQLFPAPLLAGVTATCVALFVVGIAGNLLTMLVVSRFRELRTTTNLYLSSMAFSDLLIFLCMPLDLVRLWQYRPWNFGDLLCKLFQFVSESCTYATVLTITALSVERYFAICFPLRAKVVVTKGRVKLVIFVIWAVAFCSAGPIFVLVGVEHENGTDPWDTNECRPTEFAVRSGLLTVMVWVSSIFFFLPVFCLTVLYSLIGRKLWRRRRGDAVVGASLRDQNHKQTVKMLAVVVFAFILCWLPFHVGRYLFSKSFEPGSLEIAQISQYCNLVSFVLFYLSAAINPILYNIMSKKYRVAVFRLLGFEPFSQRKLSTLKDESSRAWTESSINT
Sequence of Beta-1 adrenergic receptor (P08588 whole entry): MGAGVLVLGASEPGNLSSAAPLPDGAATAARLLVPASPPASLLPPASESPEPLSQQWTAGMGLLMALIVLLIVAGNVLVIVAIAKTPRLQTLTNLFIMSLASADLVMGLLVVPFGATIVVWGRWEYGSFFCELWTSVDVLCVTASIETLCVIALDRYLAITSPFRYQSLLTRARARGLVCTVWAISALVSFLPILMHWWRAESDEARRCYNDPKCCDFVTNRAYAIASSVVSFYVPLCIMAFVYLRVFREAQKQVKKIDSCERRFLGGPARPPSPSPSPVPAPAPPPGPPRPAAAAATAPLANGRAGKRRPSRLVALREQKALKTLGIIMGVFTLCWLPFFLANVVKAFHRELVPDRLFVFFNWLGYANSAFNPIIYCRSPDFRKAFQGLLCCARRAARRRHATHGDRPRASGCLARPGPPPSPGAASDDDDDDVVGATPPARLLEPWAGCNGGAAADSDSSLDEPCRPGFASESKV
Sequence of Melanocortin receptor 3 (P41968 whole entry): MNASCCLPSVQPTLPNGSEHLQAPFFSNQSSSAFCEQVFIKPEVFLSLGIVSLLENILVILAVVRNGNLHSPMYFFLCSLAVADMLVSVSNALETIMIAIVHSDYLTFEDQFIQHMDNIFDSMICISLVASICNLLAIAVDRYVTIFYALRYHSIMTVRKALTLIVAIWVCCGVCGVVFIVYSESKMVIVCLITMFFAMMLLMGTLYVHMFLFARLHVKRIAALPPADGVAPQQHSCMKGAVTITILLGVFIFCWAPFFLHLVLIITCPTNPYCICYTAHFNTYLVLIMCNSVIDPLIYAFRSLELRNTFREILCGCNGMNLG
Sequence of Motilin receptor (O43193 whole entry): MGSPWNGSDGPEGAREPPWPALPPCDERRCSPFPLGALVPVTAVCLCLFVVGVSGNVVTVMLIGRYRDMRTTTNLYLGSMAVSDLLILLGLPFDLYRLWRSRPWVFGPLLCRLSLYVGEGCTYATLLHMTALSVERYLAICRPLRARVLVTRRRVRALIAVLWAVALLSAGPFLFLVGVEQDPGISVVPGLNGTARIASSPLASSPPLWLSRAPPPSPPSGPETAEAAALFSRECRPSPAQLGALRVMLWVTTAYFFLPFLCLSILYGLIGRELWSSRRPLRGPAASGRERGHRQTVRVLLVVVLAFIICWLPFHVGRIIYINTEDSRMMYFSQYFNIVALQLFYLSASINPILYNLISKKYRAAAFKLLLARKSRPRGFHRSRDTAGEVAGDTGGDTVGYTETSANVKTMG
Sequence of Gamma-aminobutyric acid receptor subunit alpha-1/alpha-2/beta-2/gamma-2 (P14867 whole entry): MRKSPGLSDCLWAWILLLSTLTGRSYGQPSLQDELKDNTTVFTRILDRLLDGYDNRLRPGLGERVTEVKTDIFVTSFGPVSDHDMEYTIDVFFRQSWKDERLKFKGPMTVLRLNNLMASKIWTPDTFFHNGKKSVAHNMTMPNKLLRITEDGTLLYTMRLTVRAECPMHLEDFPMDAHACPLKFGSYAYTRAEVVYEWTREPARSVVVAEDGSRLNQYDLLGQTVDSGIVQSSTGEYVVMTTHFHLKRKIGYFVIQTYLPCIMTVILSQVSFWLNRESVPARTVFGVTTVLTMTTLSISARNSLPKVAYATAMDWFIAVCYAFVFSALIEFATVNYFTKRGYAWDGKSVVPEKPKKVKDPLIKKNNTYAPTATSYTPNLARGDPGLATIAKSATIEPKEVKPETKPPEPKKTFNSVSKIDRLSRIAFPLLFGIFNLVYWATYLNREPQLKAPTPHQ
Sequence of Gamma-aminobutyric acid receptor subunit alpha-1/alpha-2/beta-2/gamma-2 (P47870 whole entry): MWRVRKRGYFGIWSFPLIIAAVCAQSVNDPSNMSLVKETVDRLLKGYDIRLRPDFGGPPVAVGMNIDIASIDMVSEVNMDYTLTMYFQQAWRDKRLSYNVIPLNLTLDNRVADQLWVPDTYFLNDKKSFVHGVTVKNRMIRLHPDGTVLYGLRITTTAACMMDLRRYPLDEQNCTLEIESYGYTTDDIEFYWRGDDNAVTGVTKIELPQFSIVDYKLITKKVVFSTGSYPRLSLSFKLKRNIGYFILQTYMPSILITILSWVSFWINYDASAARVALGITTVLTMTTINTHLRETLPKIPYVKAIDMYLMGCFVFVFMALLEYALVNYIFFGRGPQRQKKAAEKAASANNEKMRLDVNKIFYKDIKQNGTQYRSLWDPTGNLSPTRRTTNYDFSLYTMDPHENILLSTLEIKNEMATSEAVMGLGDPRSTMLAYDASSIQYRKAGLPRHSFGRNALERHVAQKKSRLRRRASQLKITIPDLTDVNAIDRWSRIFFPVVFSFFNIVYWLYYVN
Sequence of Gamma-aminobutyric acid receptor subunit alpha-1/alpha-2/beta-2/gamma-2 (P18507 whole entry): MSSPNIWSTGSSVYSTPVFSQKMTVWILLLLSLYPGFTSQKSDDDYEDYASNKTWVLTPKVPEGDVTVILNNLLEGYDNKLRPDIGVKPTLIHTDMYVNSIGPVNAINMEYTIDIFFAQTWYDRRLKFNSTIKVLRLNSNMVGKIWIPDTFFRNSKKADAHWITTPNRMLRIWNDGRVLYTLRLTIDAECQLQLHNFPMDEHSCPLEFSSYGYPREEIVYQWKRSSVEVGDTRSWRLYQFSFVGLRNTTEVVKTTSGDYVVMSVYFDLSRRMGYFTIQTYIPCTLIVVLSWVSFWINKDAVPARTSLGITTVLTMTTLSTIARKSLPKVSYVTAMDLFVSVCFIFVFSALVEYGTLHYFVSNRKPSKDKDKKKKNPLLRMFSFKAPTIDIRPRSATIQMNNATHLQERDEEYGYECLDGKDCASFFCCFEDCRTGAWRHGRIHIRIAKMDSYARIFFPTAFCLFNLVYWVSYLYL
Sequence of Gamma-aminobutyric acid receptor subunit alpha-1/alpha-2/beta-2/gamma-2 (P47869 whole entry): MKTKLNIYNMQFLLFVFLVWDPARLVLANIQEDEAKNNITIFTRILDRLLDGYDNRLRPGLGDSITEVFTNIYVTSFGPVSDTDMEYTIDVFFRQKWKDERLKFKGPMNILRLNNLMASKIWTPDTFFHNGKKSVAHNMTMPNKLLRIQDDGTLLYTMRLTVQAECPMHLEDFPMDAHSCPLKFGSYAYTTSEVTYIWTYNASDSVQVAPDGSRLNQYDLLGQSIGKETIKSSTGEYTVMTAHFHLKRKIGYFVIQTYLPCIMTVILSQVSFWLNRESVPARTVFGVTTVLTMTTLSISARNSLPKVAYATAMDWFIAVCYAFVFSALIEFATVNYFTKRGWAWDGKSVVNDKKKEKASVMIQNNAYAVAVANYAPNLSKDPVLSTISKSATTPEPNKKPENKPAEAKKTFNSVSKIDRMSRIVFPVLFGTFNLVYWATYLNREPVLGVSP

For the compound `Cc1nnc(SCC2=C(C(=O)O)N3C(=O)[C@@H](NC(=O)Cn4cnnn4)[C@H]3SC2)s1` [CEFAZOLIN], the half-maximal activity concentration (AC50) in [1] was above 2400 µM; in experiment [2] it was above 300 µM; in experiment [3], above 300 µM; in [4], above 300 µM; on Melanocortin receptor 3, above 300 µM; in experiment [5], above 300 µM. The compound also gave an AC50 on Motilin receptor above 300 µM.

Consider `Cc1nc(Nc2ncc(C(=O)Nc3c(C)cccc3Cl)s2)cc(N2CCN(CCO)CC2)n1` [DASATINIB], for which the AC50 is above 30 µM in [2]; 10.2 µM in experiment [3]; above 30 µM in experiment [4]; above 10 µM in experiment [6]; above 30 µM at Melanocortin receptor 3; above 30 µM in experiment [5]. Further, on Motilin receptor, the AC50 was above 30 µM.

As for `CC1(C)S[C@@H]2[C@H](NC(=O)C(C(=O)O)c3ccccc3)C(=O)N2[C@H]1C(=O)O` (stereo not given in full) [CARBENICILLIN], the concentration at half-maximal activity (AC50) (in [1]; in experiment [2]; in [3]; in experiment [4]; on Melanocortin receptor 3; in experiment [5]) was above 30 µM in each case. The AC50 at Motilin receptor is above 30 µM.

As for `Clc1ccc(Cn2c(CN3CCCC3)nc3ccccc32)cc1` [CLEMIZOLE], the AC50 (in experiment [1]; in [2]; in experiment [3]; in experiment [4]; on Melanocortin receptor 3; in [5]) was above 30 µM each time. On Motilin receptor, this compound gave an AC50 above 30 µM.

As to `CC(C)NC(=N)NC(=N)Nc1ccc(Cl)c(Cl)c1` [CHLORPROGUANIL], the AC50 in experiment [1] was above 30 µM.

For `CC(C)Cc1ccc([C@H](C)C(=O)O)cc1` [DEXIBUPROFEN], the AC50 (in experiment [1]; in experiment [2]; in experiment [3]; in experiment [4]; at Melanocortin receptor 3; in experiment [5]) was above 30 µM in each case. The AC50 on Motilin receptor is above 30 µM.

Regarding `COc1cc(C(C)=O)ccc1OCCCN1CCC(c2noc3cc(F)ccc23)CC1` [ILOPERIDONE], the AC50 in experiment [1] is above 30 µM; in experiment [2] it was above 30 µM; in [3], above 30 µM; in [4], above 30 µM; at Melanocortin receptor 3, above 30 µM; in experiment [7], above 10 µM. Also, the AC50 is above 10 µM in [8], above 30 µM in [5] and above 30 µM on Motilin receptor.

Regarding `CNC[C@H](O)c1ccc(O)c(O)c1` [EPINEPHRINE], the AC50 (in [1]; in experiment [3]; in experiment [4]; on Melanocortin receptor 3; in [5]; at Motilin receptor) was above 30 µM each time.

Take `COc1ccccc1OC1(C)OC(=O)c2ccccc2O1` (stereo not given) [GUAIMESAL]: the AC50 (in experiment [2]; in [3]; in experiment [4]; at Melanocortin receptor 3; in experiment [7]; in [8]) was above 30 µM each time. The AC50 (in experiment [5]; on Motilin receptor) was above 30 µM throughout.

Take `S=P(N1CC1)(N1CC1)N1CC1` [THIOTEPA]: the AC50 (in experiment [1]; in experiment [2]; in [3]; in [4]; on Melanocortin receptor 3; in [5]) was above 30 µM each time. The same compound returned an AC50 at Motilin receptor above 30 µM.

For `CC(C)(O/N=C(\C(=O)N[C@@H]1C(=O)N2C(C(=O)[O-])=C(C[n+]3ccccc3)CS[C@H]12)c1csc(N)n1)C(=O)O` [CEFTAZIDIME], the AC50 in [1] is above 2400 µM; in experiment [2], above 300 µM; in [3] it was above 300 µM; in experiment [4] it was above 300 µM; on Melanocortin receptor 3, above 300 µM; in experiment [5], above 300 µM. The compound further yielded an AC50 on Motilin receptor above 300 µM.

In the case of `CCC(=O)O[C@]1(C(=O)CCl)[C@@H](C)C[C@H]2[C@@H]3CCC4=CC(=O)C=C[C@]4(C)[C@@]3(F)[C@@H](O)C[C@@]21C` [CLOBETASOL PROPIONATE], the AC50 (in experiment [1]; in experiment [2]; in experiment [3]; in experiment [4]; at Melanocortin receptor 3; in experiment [5]) was above 30 µM in each case. For the same compound, the AC50 on Motilin receptor stood at 25 µM.

For `C[N+](C)(C)CCOP(=O)(O)OP(=O)([O-])OC[C@H]1O[C@@H](n2ccc(N)nc2=O)[C@H](O)[C@@H]1O` [CITICOLINE], the AC50 in [1], in [7] and in experiment [8] was above 30 µM each time.

As to `CCOc1cc([C@@H](CS(C)(=O)=O)N2C(=O)c3cccc(NC(C)=O)c3C2=O)ccc1OC`, the AC50 (in experiment [1]; in experiment [2]; in experiment [3]; in [4]; at Melanocortin receptor 3; in experiment [5]) was above 30 µM throughout. At Motilin receptor, this compound registered an AC50 above 30 µM.

Consider `Cc1onc(-c2c(F)cccc2Cl)c1C(=O)N[C@@H]1C(=O)N2[C@@H]1SC(C)(C)[C@@H]2C(=O)O` [FLOXACILLIN], for which the AC50 (in [1]; in experiment [2]; in experiment [3]; in experiment [4]; at Melanocortin receptor 3; in experiment [5]) was above 30 µM in each case. Further, on Motilin receptor, the concentration at half-maximal activity (AC50) is above 30 µM.

For `CN1Cc2c(N)cccc2C(c2ccccc2)C1` (stereo not given) [NOMIFENSINE], the AC50 (in experiment [1]; in [3]; in experiment [4]; on Melanocortin receptor 3; in [5]; at Motilin receptor) was above 30 µM throughout.

For `CN(C)c1ccc(O)c2c1C[C@H]1C[C@H]3[C@H](N(C)C)C(O)=C(C(N)=O)C(=O)[C@@]3(O)C(O)=C1C2=O` [MINOCYCLINE], the AC50 in [7] and in [8] was above 30 µM throughout.

What is called AC50 is the concentration at which the activity in the assay is half-maximal.
